# Assay results from patent EP2135864A1, “5-(4-methanesulfonyl-phenyl)-thiazole derivatives for the treatment of acute and chronic inflammatory diseases” (FAES FARMA, S.A., priority 2008, dated 2009).
# Tests used:
# Format in all cases: cell-based, human
# TNF-alpha = TNF-alpha production by PBMC of healthy volunteers, ELISA of culture supernatant; settings: 24 hours, median ± standard error, n=10
# Description: In order to quantify the serum cytokines concentration, the extracted blood was stored in tubes both with and without anti-coagulant (collected by antecubital venopunction and arterial catheter, respectively). Blood was allowed to coagulate at room temperature in the laboratory, further separating the serum by centrifugation (600xg during 20 minutes). Supernatant were collected, filtered, divided in aliquotes and stored at -70°C. Concentration assays for different cytokines were performed by using the commercial kits described in Table 2. Table 2.- Commercial ELISA kits used in this study
# Supernatants were unfrozen up to the room temperature and faced against the respective anti-cytokine by fixing them in the plate bottom and incubating them during a variable time. Subsequently, wash-outs were carried out and the substances recommended by the corresponding company were added in order to allow a colorimetric reaction, in a proportional manner to the amount of cytokine present in the supernatant. The results were assessed with the enzymo-immunoanalysis reader Multititer Plus (Tiertek Multiscan Plus, Flow Laboratories).
# The analysis of the standard curves and subsequent interpolation was performed with the software Delta Soft II version 4.1 (Biometallics, Inc.) in an Apple Macintosh computer. Cytokine concentrations were converted to molar in order to calculate the molecular ratios of each case and the number of soluble molecules.
# Effects of compound 12 on TNF-alpha production by PBMC of healthy volunteers in the presence or in the absence of LPS were first investigated. PBMC (5 x 10^4 cells/well, 200 µl) from 10 healthy volunteers were cultured in parallel in duplicate in tissue culture plates, 96 well, flat-bottom with low evaporation lid (353072 Falcon, Becton Dickinson labware, Franklin Lakes, USA, 07417-1886 NJ) in complete medium (RPMI-1640 with glutamine Cat BE-12-70F, Cambrex Biosciences, B4880 Verviers, Belgium), supplemented with phoetal bovine serum (origin USA, Gibco ref. 26140-079) and a solvent concentration of 10^-6 M alone or supplemented with 10^-6 M or 10^-7 M of compound 12, in the presence and in the absence of LPS (10microg/ml; E. coli LPS 0111:B4 strain InvivoGene, San Diego CA92121 USA) during 24 hours. Supernatant of cultures were frozen at -20°C and the concentration of TNF-alpha was quantified with ELISA species-specific (enzyme-linked immunosorbent assay for quantitative detection of tumour necrosis factor- alpha: human TNF-alpha ELISA BM S223/4TEUCE, Bender Med System Inc, Burlinghane CA 94010).
# IFN-gamma [1] = assay: IFN-gamma production by PBMC from healthy volunteers, CBA; settings: 24 hours, mean ± standard error, n=13
# Description: (§1) CBA protocol was followed according to the manufacturer's instructions. The election of microparticles was performed following the summary of Figure 1.
# (§2) The acquisition on samples was performed with the BD FACS Array Bioanalyser System (FACSArray, Becton Dickinson, San José, CA, USA) and the analysis of the results was completed with the software FCAP Array (Becton Dickinson) in a PC computer.
# (§3) Briefly, the experimental protocol consisted of a plate pre-washing out with Wash Buffer. After decantation, the mixture of capture microparticles was re-suspended in the vortex. Standards and samples were added in the adequate dilution. After permanent stirring incubation during 1 h, the PE detection reagent was added and incubated again during 2h at room temperature. After a washing-out, the acquisition was performed in the flow cytometer. Table 3. -Kit CBA Human Soluble Protein Multiplex Flex Set System.
# PBMC (5 x 10^4 cells per well) from 13 healthy volunteers were cultured in duplicate in 200 µl of complete medium supplemented with the highest solvent concentration (10^-6 M), and 10^-6 M, 10^-7 M and 10^-8 M of compound 12 in the presence or absence, either of LPS (10 µg/ml), or anti-CD3 (12.5 ng/ml) + anti-CD28 (1/3x10^5), during 24 hours. Culture supernatants were frozen at -20°C and the concentration of IFN-gamma was quantified by BD FACS Array Bioanalyser by using CBA Flex Set (Becton Dickinson), specific to determine the concentration of IFN-gamma, following the manufacturer instructions.
# IFN-gamma [2] = assay: IFN-gamma production by PBMC from patients with rheumatoid arthritis, CBA; settings: 24 hours, mean ± standard error, n=8
# Description: as §1, §2, §3
# PBMC (5 x 10^4 cells/well) from 8 patients with rheumatoid arthritis were cultured in duplicate 200 µl of complete medium supplement with the highest solvent concentration (10^-6 M), and 10^-6 M, 10^-7 M and 10^-8 M of compound 12, in the presence and absence either of LPS (10 µg/ml), or anti-CD3 (12.5 ng/ml) + anti-CD28 (1/3x10^5), during 24 hours. Culture supernatants were frozen at -20°C and IFN-gamma concentration was assessed by BD FACS Array Bioanalyser by using CBA Flex Set, specific to determine IFN-gamma concentration, following the manufacturer instructions.
# IL-8 = IL-8 production by PBMC from healthy volunteers, CBA; settings: 24 hours, mean ± standard error, n=13
# Description: as §1, §2, §3
# The effect of compound 12 on the IL-8 production by the PBMC from healthy volunteers was further investigated, both in the presence and absence of LPS stimuli and monoclonal antibodies anti-CD3 and anti-CD28. PBMC (5 x 10^4 cells/well) from 13 healthy volunteers were cultured in duplicate in 200 µl of complete medium supplemented with the highest solvent concentration (10^-6 M), and 10^-6 M, 10^-7 M and 10^-8 M of compound 12, in the presence and absence of either LPS (10 µg/ml) or anti-CD3 (12.5 ng/ml) + anti-CD28 (1/3x10^5), during 24 hours. Culture supernatants were frozen at -20°C and IL-8 concentration was quantified by BD FACS Array Bioanalyser by using CBA Flex Set, specific to determine the IL-8 concentration, following the manufacturer instructions.
smiles,measurement,setting,value
"Cc1nc(OC2CCCC2)c(-c2ccc(S(C)(=O)=O)cc2)s1 [compound 12, 4-cyclopentyloxy-5-(4-methylsulfonyl-phenyl)-2-methylthiazole]",TNF-alpha production in PMBC from healthy volunteers,"TNF-alpha; LPS (10µg/ml), 10^-6 M, vehicle 3084.63±450.00, p 0.005",1064.91±52.82 (0.005) pg/mL
same,TNF-alpha production in PMBC from healthy volunteers,"TNF-alpha; LPS (10µg/ml), 10^-7 M, vehicle 3084.63±450.00, p 0.028",1938.00±487.74 (0.028) pg/mL
same,TNF-alpha production in PMBC from healthy volunteers,"TNF-alpha; medium (no stimulus), 10^-6 M, vehicle 1118.00±800.00, p 0.009",551.60±324.17 (0.009) pg/mL
same,TNF-alpha production in PMBC from healthy volunteers,"TNF-alpha; medium (no stimulus), 10^-7 M, vehicle 1118.00±800.00, p 0.114",1121.00±100.48 (0.114) pg/mL
same,IFN-gamma production in PMBC from healthy volunteers,"IFN-gamma [1]; LPS (10µg/ml), 10^-6 M, vehicle 860.42±105.00, p 0.011",649.61±120.00 (0.011) pg/mL
same,IFN-gamma production in PMBC from healthy volunteers,"IFN-gamma [1]; LPS (10µg/ml), 10^-7 M, vehicle 860.42±105.00, p 0.552",919.53±130.00 (0.552) pg/mL
same,IFN-gamma production in PMBC from healthy volunteers,"IFN-gamma [1]; LPS (10µg/ml), 10^-8 M, vehicle 860.42±105.00, p 0.382",1049.85±230.00 (0.382) pg/mL
same,IFN-gamma production in PMBC from healthy volunteers,"IFN-gamma [1]; anti-CD3 (12.5 ng/ml) + anti-CD28 (1/3x10^5), 10^-6 M, vehicle 11802.22±1300.00, p 0.019",7927.17±1003.00 (0.019) pg/mL
same,IFN-gamma production in PMBC from healthy volunteers,"IFN-gamma [1]; anti-CD3 (12.5 ng/ml) + anti-CD28 (1/3x10^5), 10^-7 M, vehicle 11802.22±1300.00, p 0.917",11552.08±1600.00 (0.917) pg/mL
same,IFN-gamma production in PMBC from healthy volunteers,"IFN-gamma [1]; anti-CD3 (12.5 ng/ml) + anti-CD28 (1/3x10^5), 10^-8 M, vehicle 11802.22±1300.00, p 0.196",10254.66±1500.00 (0.196) pg/mL
same,IFN-gamma production in PMBC from healthy volunteers,"IFN-gamma [1]; medium, 10^-6 M, vehicle 283.78±90.00, p 0.279",189.72±40.00 (0.279) pg/mL
same,IFN-gamma production in PMBC from healthy volunteers,"IFN-gamma [1]; medium, 10^-7 M, vehicle 283.78±90.00, p 0.807",296.28±90.00 (0.807) pg/mL
same,IFN-gamma production in PMBC from healthy volunteers,"IFN-gamma [1]; medium, 10^-8 M, vehicle 283.78±90.00, p 0.807",279.16±60.00 (0.807) pg/mL
same,IFN-gamma production in PMBC from patients with rheumatoid arthritis,"IFN-gamma [2]; LPS (10µg/ml), 10^-6 M, vehicle 461.14±85.00, p 0.484",205.26±46.00 (0.484) pg/mL
same,IFN-gamma production in PMBC from patients with rheumatoid arthritis,"IFN-gamma [2]; LPS (10µg/ml), 10^-7 M, vehicle 461.14±85.00, p 0.208",146.50±33.00 (0.208) pg/mL
same,IFN-gamma production in PMBC from patients with rheumatoid arthritis,"IFN-gamma [2]; LPS (10µg/ml), 10^-8 M, vehicle 461.14±85.00, p 0.889",248.73±35.00 (0.889) pg/mL
same,IFN-gamma production in PMBC from patients with rheumatoid arthritis,"IFN-gamma [2]; anti-CD3 (12.5 ng/ml) + anti-CD28 (1/3x10^5), 10^-6 M, vehicle 8406.18±1000.00, p 0.05",5115.27±600.00 (0.05) pg/mL
same,IFN-gamma production in PMBC from patients with rheumatoid arthritis,"IFN-gamma [2]; anti-CD3 (12.5 ng/ml) + anti-CD28 (1/3x10^5), 10^-7 M, vehicle 8406.18±1000.00, p 0.05",6411.71±700.00 (0.05) pg/mL
same,IFN-gamma production in PMBC from patients with rheumatoid arthritis,"IFN-gamma [2]; anti-CD3 (12.5 ng/ml) + anti-CD28 (1/3x10^5), 10^-8 M, vehicle 8406.18±1000.00, p 0.017",7122.07±950 (0.017) pg/mL
same,IFN-gamma production in PMBC from patients with rheumatoid arthritis,"IFN-gamma [2]; medium, 10^-6 M, vehicle 145.49±28.00, p 0.779",193.68±45.00 (0.779) pg/mL
same,IFN-gamma production in PMBC from patients with rheumatoid arthritis,"IFN-gamma [2]; medium, 10^-7 M, vehicle 145.49±28.00, p 0.208",203.72±50.00 (0.208) pg/mL
same,IFN-gamma production in PMBC from patients with rheumatoid arthritis,"IFN-gamma [2]; medium, 10^-8 M, vehicle 145.49±28.00, p 0.674",235.10±60.00 (0.674) pg/mL
same,IL-8 production by PMBC from healthy volunteers,"IL-8; LPS (10µg/ml), 10^-6 M, vehicle 173877.36±8474.49, p 0.807",168467.15±9656.96 (0.807) pg/mL
same,IL-8 production by PMBC from healthy volunteers,"IL-8; LPS (10µg/ml), 10^-7 M, vehicle 173877.36±8474.49, p 0.249",162075.59±10258.41 (0.249) pg/mL
same,IL-8 production by PMBC from healthy volunteers,"IL-8; LPS (10µg/ml), 10^-8 M, vehicle 173877.36±8474.49, p 0.861",169609.11±9060.90 (0.861) pg/mL
same,IL-8 production by PMBC from healthy volunteers,"IL-8; anti-CD3 (12.5 ng/ml) + anti-CD28 (1/3x10^5), 10^-6 M, vehicle 107008.56±8351.21, p 0.311",99779.72±20000 (0.311) pg/mL
same,IL-8 production by PMBC from healthy volunteers,"IL-8; anti-CD3 (12.5 ng/ml) + anti-CD28 (1/3x10^5), 10^-7 M, vehicle 107008.56±8351.21, p 0.055",97968.61±10220.21 (0.055) pg/mL
same,IL-8 production by PMBC from healthy volunteers,"IL-8; anti-CD3 (12.5 ng/ml) + anti-CD28 (1/3x10^5), 10^-8 M, vehicle 107008.56±8351.21, p 0.028",92989.29±8463.47 (0.028) pg/mL
same,IL-8 production by PMBC from healthy volunteers,"IL-8; medium, 10^-6 M, vehicle 72814.17±10647.16, p 0.016",45634.31±6311.13 (0.016) pg/mL
same,IL-8 production by PMBC from healthy volunteers,"IL-8; medium, 10^-7 M, vehicle 72814.17±10647.16, p 0.006",53732.66±7952.75 (0.006) pg/mL
same,IL-8 production by PMBC from healthy volunteers,"IL-8; medium, 10^-8 M, vehicle 72814.17±10647.16, p 0.087",57773.60±6667.57 (0.087) pg/mL
